In patent publication US20240425478A1, “CYCLOPENTYLPYRAZOLE CDK2 INHIBITORS” (Genentech, Inc., priority 2021, published 2024):
Like-named read-outs stand apart in the source and are kept apart here.

What was measured:
[1] = target: T1, Cyclin Dependent Kinase 1/Cyclin A2 (CDK1-cycA2) (Homo sapiens, UniProt P06493); assay: CDK1-cycA2 TR-FRET (Lance) enzyme assay; assay type: biochemical; conditions: for Ki: enzymatic assay; for FS CDK1/CDK2: fold selectivity, enzymatic Ki ratio
T1 construct: purchased ProQinase 0134-0054-1
T1 sequence (P06493 whole entry): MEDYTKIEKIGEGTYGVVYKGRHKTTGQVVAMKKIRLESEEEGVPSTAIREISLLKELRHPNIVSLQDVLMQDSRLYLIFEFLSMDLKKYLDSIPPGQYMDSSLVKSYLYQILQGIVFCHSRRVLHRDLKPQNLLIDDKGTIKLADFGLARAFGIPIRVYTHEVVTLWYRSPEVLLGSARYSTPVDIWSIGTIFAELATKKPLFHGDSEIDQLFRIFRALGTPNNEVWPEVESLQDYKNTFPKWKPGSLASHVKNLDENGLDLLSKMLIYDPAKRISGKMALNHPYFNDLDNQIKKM
T1 sequence (P20248 whole entry partner): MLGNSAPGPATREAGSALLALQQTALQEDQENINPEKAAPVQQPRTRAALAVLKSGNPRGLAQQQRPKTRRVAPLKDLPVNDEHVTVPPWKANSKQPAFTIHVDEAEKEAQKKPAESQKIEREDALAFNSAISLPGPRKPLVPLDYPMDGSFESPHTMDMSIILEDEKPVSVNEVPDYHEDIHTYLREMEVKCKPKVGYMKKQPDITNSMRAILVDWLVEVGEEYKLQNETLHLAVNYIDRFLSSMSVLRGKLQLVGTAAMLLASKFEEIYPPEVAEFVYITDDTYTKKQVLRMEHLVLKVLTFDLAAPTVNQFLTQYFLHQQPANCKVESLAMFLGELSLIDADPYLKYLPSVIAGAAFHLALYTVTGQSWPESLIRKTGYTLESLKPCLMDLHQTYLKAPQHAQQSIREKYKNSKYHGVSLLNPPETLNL
Protocol: (§1) Cyclin Dependent Kinase 1/Cyclin A2 (CDK1-cycA2), Cyclin Dependent Kinase 2/Cyclin E1 (CDK2-cycE1), Cyclin Dependent Kinase 4/Cyclin D3 (CDK4-cycD3) and Cyclin Dependent Kinase 6/Cyclin D3 (CDK6-cycD3) enzyme assays were carried out as described below.
(1) CDK1-cycA2 TR-FRET (Lance®)
(§2) An Echo acoustic dispenser is used to create dose responses of compound dissolved in DMSO into a 384-well microplate. A 5 μL volume of enzyme mix is added to the well, and pre-incubated with compound for 30 minutes. […] Buffer conditions are 50 mM HEPES, pH 7.5, 10 mM MgCl2, 2 mM TCEP, 0.05% BGG and 0.01% Brij 35. The reaction is quenched with 5 μL of EDTA in detection buffer (15 mM [EDTA final]). Finally, a 5 μL TR-FRET detection mix is added to the quenched reaction, which includes Europium labeled anti-phospho-4E-BP1. […] Signal is a ratio of the Acceptor and Donor fluorescence. Inhibition constants are calculated via the Morrison equation.

[2] = target: T2, Cyclin Dependent Kinase 2/Cyclin E1 (CDK2-cycE1) (Homo sapiens, UniProt P24941); assay: CDK2-cycE1 TR-FRET (LANCE) enzyme assay; assay type: biochemical; conditions: for FS CDK1/CDK2 / FS CDK4/CDK2: fold selectivity; for improvement in potency against CDK2 (Ki) over Comparator C: in brackets after CDK2 Ki, Comparator C 0.032 μM;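 on improvement in potency against CDK2 (Ki) over Comparator C: fold lower CDK2 Ki than comparator c (Ki 0.032 µM)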
T2 construct: purchased ProQinase 0050-0055-1
Protocol: as §1
(ii) CDK2-cycE1 TR-FRET (LANCE®)
as §2, with “anti-phospho-MBP.” for “anti-phospho-4E-BP1.”, “equation. Enzyme source of CDK2-cycE1 is ProQinase, catalog #: 0050-0055-1.” for “equation.”

[3] = target: T3, Cyclin Dependent Kinase 4/Cyclin D3 (CDK4-cycD3) (Homo sapiens, UniProt P11802); assay: CDK4-cycD3 TR-FRET (LANCE) enzyme assay; assay type: biochemical; conditions: for Ki: enzymatic assay; for FS CDK4/CDK2: fold selectivity, enzymatic Ki ratio
T3 construct: purchased Carna Biosciences 04-105
T3 sequence (P11802 whole entry): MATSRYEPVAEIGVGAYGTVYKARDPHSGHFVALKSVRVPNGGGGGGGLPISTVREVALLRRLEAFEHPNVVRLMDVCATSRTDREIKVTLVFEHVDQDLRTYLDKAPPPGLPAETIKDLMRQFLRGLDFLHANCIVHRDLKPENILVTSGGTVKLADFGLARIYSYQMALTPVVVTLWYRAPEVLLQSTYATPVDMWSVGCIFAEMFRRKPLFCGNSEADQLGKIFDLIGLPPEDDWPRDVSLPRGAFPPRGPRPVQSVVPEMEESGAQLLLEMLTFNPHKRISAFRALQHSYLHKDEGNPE
T3 sequence (P30281 whole entry partner): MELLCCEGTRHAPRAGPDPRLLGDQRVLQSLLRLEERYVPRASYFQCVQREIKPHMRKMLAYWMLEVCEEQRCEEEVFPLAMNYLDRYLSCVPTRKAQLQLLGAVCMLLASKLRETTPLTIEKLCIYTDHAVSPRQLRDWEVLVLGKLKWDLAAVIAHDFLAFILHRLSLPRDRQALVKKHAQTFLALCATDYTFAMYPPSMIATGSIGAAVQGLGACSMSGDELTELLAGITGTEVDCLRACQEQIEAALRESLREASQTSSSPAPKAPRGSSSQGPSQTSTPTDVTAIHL
Protocol: as §1
(iii) CDK4-cycD3 TR-FRET (LANCE®)
as §2

[4] = tested on: OVISE (JCRB1043, CCNE1-amplified); assay: OVISE EdU incorporation cell proliferation assay (CDK2-dependent); assay type: cell-based; conditions: for IC50: cellular assay, read-out: CDK2 OVISE IC50; for FS SKOV-3/OVISE: fold selectivity; for improvement in CDK2 OVISE cell potency over Comparator C: in brackets after OVISE IC50, Comparator C 5.5 μM
Protocol: (§3) (i) OVISE and SKOV-3 EdU Incorporation Cell Proliferation Assays
(§4) Ovarian cancer cell proliferation is measured by incorporation of EdU (5-ethynyl-2′-deoxyuridine) into newly synthesized DNA. CDK2-dependent proliferation is determined using OVISE (JCRB1043, CCNE1-amplified) while CDK4/6-dependent effect is determined with SKOV-3 (ATCC HTB-77) which is not CCNE1-amplified.
(§5) Cells are plated in 384-well plates in RPMI medium supplemented with 10% FBS. Compounds are added at desired concentrations with a final DMSO content of 0.5%, and cells incubated at 37° C./5% CO2 for 16 hours. EdU (Life Technologies) is added to a final concentration of 0.5 μM and incubation continued for 8 hours, followed by fixation with 4% paraformaldehyde. […] Images are acquired using Yokogawa CQ1 imaging cytometer with a 10×objective. […] The IC50 for inhibition of cell division is determined by fitting the fraction of EdU-positive cells as a function of compound dose using a 4-parameter logistic model.

SKOV-3 (ATCC HTB-77) = assay: SKOV-3 EdU incorporation cell proliferation assay (CDK4/6-dependent); assay type: cell-based; conditions: for IC50: Homo sapiens, cellular assay, read-out: CDK4/6 SKOV-3 IC50; for FS SKOV-3/OVISE: fold selectivity, cellular IC50 ratio
Protocol: as §3, §4, §5

[5] = Table O, enzymatic assay, read-out: CDK2 Ki
[6] = Table O, enzymatic CDK1 Ki over CDK2 Ki
[7] = Table O, enzymatic CDK4 Ki over CDK2 Ki
[8] = Table O, cellular SKOV-3 IC50 over OVISE IC50
[9] = read-out: CDK2 activity / potency (enzymatic assay)
[10] = Table Q, enzymatic assay, read-out: CDK2 Ki

| Structure (SMILES) | Ki ([1]; Table O) [nM] | Ki [2, 5] [nM] | FS CDK1/CDK2 [2, 6] | FS CDK4/CDK2 [2, 7] | Ki ([3]; Table O) [nM] | IC50 ([4]; Table O) [nM] | FS SKOV-3/OVISE [4, 8] | IC50 (SKOV-3 (ATCC HTB-77); SK-OV-3, Table O) [nM] | other results |
| --- | --- | --- | --- | --- | --- | --- | --- | --- | --- |
| CC[C@H](C)NC(=O)O[C@@H]1CC[C@H](c2cc(Nc3cccnn3)n[nH]2)C1 (single isomer, unassigned) [Example 3B] | 200 | 8.5 | 24 | 34 | 290 | 570 | 18 | 10000 |  |
| CC[C@@H](C)NC(=O)O[C@@H]1CC[C@H](c2cc(Nc3cccnn3)n[nH]2)C1 (single isomer, unassigned) [Example 3C] | 500 | 18 | 28 | 24 | 430 | 390 | 31 | 12000 |  |
| C[C@H](NC(=O)O[C@@H]1CC[C@H](c2cc(Nc3cccnn3)n[nH]2)C1)C(F)(F)F (single isomer, unassigned) [Example 5A] | 1700 | 63 | 27 | 33 | 2100 | 2200 | >9 | > 20000 |  |
| C[C@@H](NC(=O)O[C@@H]1CC[C@H](c2cc(Nc3cccnn3)n[nH]2)C1)C(F)(F)F (single isomer, unassigned) [Example 5B] | 310 | 26 | 12 | 20 | 510 | 2900 | >6.9 | > 20000 |  |
| CC(C)(C)NC(=O)O[C@@H]1CC[C@H](c2cc(Nc3ccc4c(n3)CCC4)n[nH]2)C1 [Comparator D, (1R,3S)-3-(3-((6,7-dihydro-5H-cyclopenta[b]pyridin-2-yl)amino)-1H-pyrazol-5-yl)cyclopentyl tert-butylcarbamate, reference compound] |  |  |  |  |  |  |  |  | Ki ([1]; Table R): 54 nM; FS CDK1/CDK2 ([1]; Table R): 20; Ki [2, 9]: 2.7 nM; Ki ([3]; Table R): 5.2 nM; FS CDK4/CDK2 ([3]; Table R): 1.9; IC50 ([4]; Table R): 3800 nM; IC50 (SKOV-3 (ATCC HTB-77); SK-OV-3, Table R): 1800 nM; FS SKOV-3/OVISE (SKOV-3 (ATCC HTB-77); Table R): 0.47 |
| CC(C)(C)NC(=O)O[C@@H]1CC[C@H](c2cc(Nc3ccccc3)n[nH]2)C1 [Comparator E, (1R,3S)-3-(3-(phenylamino)-1H-pyrazol-5-yl)cyclopentyl tert-butylcarbamate, reference compound] |  |  |  |  |  |  |  |  | Ki ([1]; Table S): 33 nM; FS CDK1/CDK2 ([1]; Table S): 63; Ki ([2]; Table S, enzymatic assay, read-out: CDK2 Ki): 0.52 nM; Ki [2, 9]: 0.52 nM; Ki ([3]; Table S): 23 nM; FS CDK4/CDK2 ([3]; Table S): 44; IC50 ([4]; Table S): 170 nM; IC50 (SKOV-3 (ATCC HTB-77); SK-OV-3, Table S): 2700 nM; FS SKOV-3/OVISE (SKOV-3 (ATCC HTB-77); Table S): 16 |
| CC(C)NC(=O)O[C@@H]1CC[C@H](c2cc(Nc3ccn(C)c(=O)c3)n[nH]2)C1 [Example 2AA, (1R,3S)-3-(3-((1-methyl-2-oxo-1,2-dihydropyridin-4-yl)amino)-1H-pyrazol-5-y1)cyclopenty1 isopropylcarbamate] | 440 | 17 | 26 | 26 | 450 | 4100 | >49 | > 20000 | increased fold-selectivity CDK4/CDK2 over Comparator C ([2]; Table Q, (+) sign after FS CDK4/CDK2): (+) (The (+) sign in Table Q signifies desirable increased fold-selectivity of the exemplary compounds over Comparator C); Ki [2, 10]: 17 nM; FS CDK1/CDK2 ([2]; Table Q, enzymatic): 26; FS CDK4/CDK2 ([2]; Table Q, enzymatic): 26; improvement in potency against CDK2 (Ki) over Comparator C ([2]; Table Q): 1.9 fold; increased fold-selectivity SKOV-3/OVISE over Comparator C ([4]; Table Q, (+) sign after FS SKOV-3/OVISE): (+) (The (+) sign in Table Q signifies desirable increased fold-selectivity of the exemplary compounds over Comparator C); FS SKOV-3/OVISE ([4]; Table Q, cellular): > 4.9; improvement in CDK2 OVISE cell potency over Comparator C ([4]; Table Q): 1.3 fold; IC50 (SKOV-3 (ATCC HTB-77); SK-OV-3, Table Q): > 20000 nM |
| CC(C)NC(=O)O[C@@H]1CC[C@H](c2cc(Nc3cccn(C)c3=O)n[nH]2)C1 [Example 2BB, (1R,3S)-3-(3-((1-methyl-2-oxo-1,2-dihydropyridin-3-yl)amino)-1H-pyrazol-5-y1)cyclopenty1 isopropylcarbamate] | 32000 | 1100 | 29 | 6.3 | 6900 | > 20000 | 1.0 | > 20000 | Ki [2, 10]: 1100 nM; FS CDK1/CDK2 ([2]; Table Q, enzymatic): 29; FS CDK4/CDK2 ([2]; Table Q, enzymatic): 6.3; improvement in potency against CDK2 (Ki) over Comparator C ([2]; Table Q): 0.3 fold; IC50 ([4]; Table Q): > 20000 nM; FS SKOV-3/OVISE ([4]; Table Q, cellular): 1.0; improvement in CDK2 OVISE cell potency over Comparator C ([4]; Table Q): 0.28 fold; IC50 (SKOV-3 (ATCC HTB-77); SK-OV-3, Table Q): > 20000 nM |
| Cn1c(Nc2cc([C@H]3CC[C@@H](OC(=O)NC(C)(C)C)C3)[nH]n2)ccnc1=O [Example 8A, (1R,3S)-3-(3-((3-methyl-2-oxo-2,3-dihydropyrimidin-4-yl)amino)-1H-pyrazol-5-yl)cyclopentyl tert-butylcarbamate] | 11000 | 270 | 41 | 185 |  | 20000 | >1 | > 20000 |  |
| Cn1c(Nc2cc([C@H]3CC[C@@H](OC(=O)NC45CC(C4)C5)C3)[nH]n2)nccc1=O [Example 9A, (1R,3S)-3-(3-((1-methyl-6-oxo-1,6-dihydropyrimidin-2-yl)amino)-1H-pyrazol-5-yl)cyclopentyl bicyclo[1.1.1]pentan-1-ylcarbamate] |  |  |  |  | 150 |  |  | 3000 |  |
